Source: article PMC8861115, “Characterization and structural analyses of a novel glycosyltransferase acting on the β-1,2-glucosidic linkages” (The Journal of Biological Chemistry, 2022)
Residue numbers refer to the chain shown, from its start.

Assays:
IaSGT (IALB_1185) [1] = target: T1, IaSGT (IALB_1185) (Ignavibacterium album, UniProt I0AIT9); assay: hexokinase/G6PDH thio-NAD+ coupled glucose release; assay type: biochemical; conditions: acceptor; donor Sop2 fixed 1 mM; pH 5.0, 37 °C
T1 construct: full length (no N-terminal signal peptide), his6-tag fusion from pET30a(+) NdeI/XhoI, E. coli BL21(DE3); homodimer
T1 sequence (I0AIT9 1-716): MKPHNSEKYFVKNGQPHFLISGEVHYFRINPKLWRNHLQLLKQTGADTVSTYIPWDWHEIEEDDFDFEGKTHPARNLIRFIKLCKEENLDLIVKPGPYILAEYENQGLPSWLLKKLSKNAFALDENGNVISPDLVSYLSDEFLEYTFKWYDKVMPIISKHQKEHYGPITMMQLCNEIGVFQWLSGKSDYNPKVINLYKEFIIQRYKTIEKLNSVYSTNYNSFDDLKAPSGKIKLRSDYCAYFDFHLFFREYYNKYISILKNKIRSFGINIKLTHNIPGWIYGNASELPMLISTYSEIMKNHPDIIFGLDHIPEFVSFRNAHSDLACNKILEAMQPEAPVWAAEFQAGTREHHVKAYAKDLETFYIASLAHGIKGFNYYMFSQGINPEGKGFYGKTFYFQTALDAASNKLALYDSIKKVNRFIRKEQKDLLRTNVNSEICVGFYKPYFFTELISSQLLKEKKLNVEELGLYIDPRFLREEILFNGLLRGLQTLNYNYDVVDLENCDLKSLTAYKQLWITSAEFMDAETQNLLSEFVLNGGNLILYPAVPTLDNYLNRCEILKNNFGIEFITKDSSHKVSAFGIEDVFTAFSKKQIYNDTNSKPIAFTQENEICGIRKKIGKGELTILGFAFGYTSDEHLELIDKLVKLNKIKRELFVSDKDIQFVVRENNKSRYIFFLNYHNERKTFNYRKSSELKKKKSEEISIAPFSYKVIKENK
Text: hexokinase/G6PDH thio-NAD+ coupled glucose release on IaSGT (IALB_1185)

IaSGT (IALB_1185) [2] = target: T2, IaSGT (IALB_1185) (Ignavibacterium album, UniProt I0AIT9, E343G); assay: X-ray crystal structure of complex; assay type: binding; conditions: subsites -1 and +1, subunit A only
T2 construct: full length (no N-terminal signal peptide), his6-tag fusion from pET30a(+) NdeI/XhoI, E. coli BL21(DE3); homodimer
T2 sequence (I0AIT9 1-716 E343G): T1 sequence (I0AIT9 1-716) with E343G

| Structure (SMILES) | Km (IaSGT (IALB_1185) [1]) | X-ray crystal structure of complex (IaSGT (IALB_1185) [2]) |
| --- | --- | --- |
| N#C[C@H](O[C@@H]1O[C@H](CO[C@@H]2O[C@H](CO)[C@@H](O)[C@H](O)[C@H]2O)[C@@H](O)[C@H](O)[C@H]1O)c1ccccc1 [Amygdalin] | 150 ± 20 µM |  |
| OC[C@H]1NC[C@H](O)[C@@H](O)[C@@H]1O [DNJ, 1-deoxynojirimycin] |  | The electron densities of DNJ molecules were observed only in subunit A in the E343G mutant |
